Values quoted from earlier work as cited in US7922709B2, “Enhanced delivery of naked DNA to skin by non-invasive in vivo electroporation” (priority 1998, dated 2011).

For bleomycin, the “log P (partition coefficient between octanol and water)” value is listed as “very negative”.
